Measured values taken from patent US4966891A, “Fluorocytidine derivatives” (priority 1987, dated 1990).

How the values were obtained:
Meth A fibrosarcoma = assay: Antitumor testing against Meth A fibrosarcoma (oral, s.c. implanted); format: in vivo, mice; settings: Mus musculus, read-out: Inhibition of tumor growth; for inhibition in vivo at 1500 µmol/kg: 1.5 mmole/kg/day × 7, p.o.; for inhibition in vivo at 3000 µmol/kg: 3.0 mmole/kg/day × 7, p.o.; for inhibition in vivo at 800 µmol/kg: 0.8 mmole/kg/day × 7, p.o.
Procedure: (§1) Sarcoma 180 cells (2×10^6 cells) were implanted subcutaneously into mice (20-22 g) on day 0. The compounds of the present invention were administered daily from day 1 through 7 orally. The animals were sacrificed on day 14 and tumors were excised and weighed. The percent inhibition of tumor growth given in Table 1 below was calculated from the formula:
(§2) T=weight of the tumors from the treated group, C=weight of the tumors from the control group.
Meth A fibrosarcoma cells (2×10^5 cells) were implanted subcutaneously into mice (21-22 g). The testing against Meth A fibrosarcoma and the calculation of the percent inhibition of tumor growth were effected according to a manner analogous to that of the testing against Sarcoma 180.

Sarcoma 180 = assay: Antitumor testing against Sarcoma 180 (oral, s.c. implanted); format: in vivo, mice; settings: Mus musculus, 336 h, day 14, read-out: Inhibition of tumor growth
Procedure: as §1, §2

| SMILES | inhibition in vivo at 1500 µmol/kg (Meth A fibrosarcoma) [%] | inhibition in vivo at 3000 µmol/kg (Meth A fibrosarcoma) [%] | inhibition in vivo at 800 µmol/kg (Meth A fibrosarcoma) [%] | inhibition in vivo at 500 µmol/kg (Sarcoma 180; 0.5 mmole/kg/day × 7, p.o.) [%] | inhibition in vivo at 1500 µmol/kg (Sarcoma 180; 1.5 mmole/kg/day × 7, p.o.) [%] |
| --- | --- | --- | --- | --- | --- |
| COc1ccc(C(=O)Nc2nc(=O)n([C@@H]3O[C@H](C)[C@@H](O)[C@H]3O)cc2F)cc1OC [Example 26] | 37 | 58 | – | – | – |
| COc1cc(OC)cc(C(=O)Nc2nc(=O)n([C@@H]3O[C@H](C)[C@@H](O)[C@H]3O)cc2F)c1 [Example 27] | 58 | 91 | – | – | – |
| COc1ccc(C(=O)Nc2nc(=O)n([C@@H]3O[C@H](C)[C@@H](O)[C@H]3O)cc2F)c(OC)c1 [Example 28] | -13 | -13 | – | – | – |
| C[C@H]1O[C@@H](n2cc(F)c(NC(=O)c3ccc([N+](=O)[O-])cc3)nc2=O)[C@H](O)[C@@H]1O [Example 29] | 49 | 92 | – | – | – |
| C[C@H]1O[C@@H](n2cc(F)c(NC(=O)c3cccc([N+](=O)[O-])c3)nc2=O)[C@H](O)[C@@H]1O [Example 30] | 55 | 58 | – | – | – |
| COC(=O)c1ccc(C(=O)Nc2nc(=O)n([C@@H]3O[C@H](C)[C@@H](O)[C@H]3O)cc2F)cc1 [Example 31, 5'-deoxy-5-fluoro-N^4-(4-methoxycarbonylbenzoyl)cytidine] | 55 | 84 | – | – | – |
| C[C@H]1O[C@@H](n2cc(F)c(NC(=O)c3ccco3)nc2=O)[C@H](O)[C@@H]1O [Example 36, 5'-deoxy-5-fluoro-N^4-(2-furoyl)cytidine] | 53 | 92 | – | – | – |
| C[C@H]1O[C@@H](n2cc(F)c(NC(=O)c3cccs3)nc2=O)[C@H](O)[C@@H]1O [Example 37, 5'-deoxy-5-fluoro-N^4-(2-thenoyl)cytidine] | 59 | 86 | – | – | – |
| C[C@H]1O[C@@H](n2cc(F)c(NC(=O)c3ccc4ccccc4c3)nc2=O)[C@H](O)[C@@H]1O [Example 40, 5'-deoxy-5-fluoro-N^4-(2-naphthoyl)cytidine] | 57 | – | 41 | – | – |
| CCCCCCCCOC(=O)Nc1nc(=O)n([C@@H]2O[C@H](C)[C@@H](O)[C@H]2O)cc1F [Example 41, 5'-deoxy-5-fluoro-N^4-(octyloxycarbonyl)cytidine] | – | – | – | -18 | 36 |
| CCSC(=O)Nc1nc(=O)n([C@@H]2O[C@H](C)[C@@H](O)[C@H]2O)cc1F [Example 44, 5'-deoxy-N^4-(ethylthio)carbonyl-5-fluorocytidine] | 38 | 66 | – | – | – |
| CCC(=O)Nc1nc(=O)n([C@@H]2O[C@H](C)[C@@H](O)[C@H]2O)cc1F [Example 45, 5'-deoxy-5-fluoro-N^4-propionylcytidine] | 49 | 71 | – | – | – |
| C[C@H]1O[C@@H](n2cc(F)c(NC(=O)c3ccc4c(c3)OCO4)nc2=O)[C@H](O)[C@@H]1O [Example 48, 5'-deoxy-5-fluoro-N^4-piperonyloylcytidine] | 72 | – | 42 | – | – |
| C=CCC(=O)Nc1nc(=O)n([C@@H]2O[C@H](C)[C@@H](O)[C@H]2O)cc1F [Example 49, N^4-(3-butenoyl)-5'-deoxy-5-fluorocytidine] | 58 | 76 | – | – | – |
| C[C@H]1O[C@@H](n2cc(F)c(NC(=O)CCc3ccccc3)nc2=O)[C@H](O)[C@@H]1O [Example 52] | 51 | – | 41 | – | – |
| Cc1ccc(C(=O)Nc2nc(=O)n([C@@H]3O[C@H](C)[C@@H](O)[C@H]3O)cc2F)cc1C [Example 53] | 48 | 85 | – | – | – |
| C[C@H]1O[C@@H](n2cc(F)c(NC(=O)Cc3c[nH]c4ccccc34)nc2=O)[C@H](O)[C@@H]1O [Example 54, 5'-deoxy-5-fluoro-N^4-(3-indolylacetyl)cytidine] | 55 | 85 | – | – | – |
| C[C@H]1O[C@@H](n2cc(F)c(N)nc2=O)[C@H](OC(=O)c2ccccc2)[C@@H]1OC(=O)c1ccccc1 [Example 57, 2',3'-di-O-benxoyl-5'-deoxy-5-fluorocytidine] | 28 | 56 | – | – | – |
| C[C@H]1O[C@@H](n2cc(F)c(N)nc2=O)[C@H](O)[C@@H]1OC(=O)c1ccccc1 [Example 59, 3'-O-benzoyl-5'-deoxy-5-fluorocytidine] | 23 | 80 | – | – | – |
